Laboratory results published in patent US20190117547A1, “COSMETIC COMPOSITIONS COMPRISING SCLAREOLIDE” (SYMRISE AG, priority 2016, published 2019).

Key:
Format in all cases: cell-based
[1] = tested on: ex vivo human skin explants; assay: Melanin formation after visible light irradiation on ex vivo human skin; settings: for Inhibition vs Placebo: skin explants, visible light 480 J/cm2; for % of melanin: topical on skin explants, visible light 480 J/cm2, Fontana-Masson stain
Experimental: The below formulations were applied on ex vivo human skin explants from abdominal surgery of a donor with phototype IV (Fitzpatrick scale). 48 h after the formulations were removed with a cotton pad. Skin explants were exposed to visible light (480 J/cm2) with Hydrosun 750 equipped with KG1 filter. Formulations were reapplied afterwards. 48 h later skin sections were prepared and melanin was stained by Fontana-Masson stain. Quantification of melanin was done by image analysis.

[2] = tested on: CXCL1 (C—X—C motif chemokine ligand 1); assay: UVB induced gene expression (RTq PCR), CXCL1; settings: HaCaT cells, 50 μM Sclareolide, 20 mJ/cm^2 UVB, 24 hours; normalized to HPRT1 (UVB alone 5.4)
Experimental: (§1) HaCaT cells are seeded into a 12-well plate with 2.0×10^5 cells/well. After incubation over night the test compound (50 μM Sclareolide) is added to the cells and the plate is incubated for two more hours. Then cells are washed with PBS and irradiated with 20 mJ/cm^2 UVB (UVITEC Cambridge, 312 nm). PBS is removed and medium (control and with test compound) added. Cells are incubated for 24 hours. RNA is extracted and purified using the RNeasy kit (Qiagen) according to the manufacturer's instructions. The RNA concentration is determined with a photometer (Eppendorf) and 2 μg are used for reverse transcription, that is performed with the TaqMan® MicroRNACells-to-CT™ Kit (Ambion) like described in the user manual. Quantitative real time PCR is performed using the Applied Biosystems StepOne™ with customized TaqMan® Array Fast Plates with following primers: HPRT1 (hypoxanthine phosphoribosyltransferase 1) as housekeeping gene, EDN1(endothelin 1), CXCL1 (C—X—C motif chemokine ligand 1), IL6 (interleukin 6) and IL8 (C—X—C motif chemokine ligand 8). Target gene transcript levels are normalized to the HPRT1 transcript level and the relative transcript changes are calculated using the RQ=2-ΔΔCt method.

[3] = tested on: EDN1(endothelin 1); assay: UVB induced gene expression (RTq PCR), EDN1; settings: HaCaT cells, 50 μM Sclareolide, 20 mJ/cm^2 UVB, 24 hours; normalized to HPRT1 (UVB alone 22.7)
Experimental: as §1

[4] = tested on: IL6 (interleukin 6); assay: UVB induced gene expression (RTq PCR), IL6; settings: HaCaT cells, 50 μM Sclareolide, 20 mJ/cm^2 UVB, 24 hours; normalized to HPRT1 (UVB alone 8.4)
Experimental: as §1

[5] = tested on: Human epidermal melanoma cells A375; assay: Visible light induced hyperpigmentation in vitro; settings: for Inhibition vs visible light induced / melanin: visible light 480 J/cm2
Experimental: (§2) Human epidermal melanoma cells A375 were cultured in 6-well plates. The cells were exposed to visible light (480 J/cm2) with Hydrosun 750 equipped with KG1 filter. 48 h prior to and past to the irradiation the cells were treated with test compounds in non-cytotoxic concentrations. Melanocytes were lysed in a solution of NaOH. Melanin was quantified by measurement of absorbance at 405 nm and calculation based on a melanin standard curve.

[6] = tested on: genes well-known for the induction of hyperpigmentation; assay: UVB induced gene expression (RTq PCR), overall statement; settings: HaCaT cells, 50 μM Sclareolide, summary in words
Experimental: as §1

[7] = tested on: IL8 (C—X—C motif chemokine ligand 8); assay: UVB induced gene expression (RTq PCR), IL8; settings: HaCaT cells, 50 μM Sclareolide, 20 mJ/cm^2 UVB, 24 hours; normalized to HPRT1 (UVB alone 17.9)
Experimental: as §1

[8] = tested on: Human epidermal melanoma cells A375; assay: Basal melanin formation in vitro; settings: for melanin: basal (no irradiation)
Experimental: as §2, with “The cells were exposed to visible light (480 J/cm2) with Hydrosun 750 equipped with KG1 filter.” left out

[9] = 0.05% sclareolide formulation (C)
[10] = 0.2% sclareolide formulation (B)

## CC1(C)CCC[C@]2(C)C3CC(=O)O[C@]3(C)CC[C@@H]12 (stereo partly drawn) [sclareolide, (3aR,5aS,9aS,9bR)-deca hydro-3a,6,6,9a-tetramethylnaphtha[2,1-b]furan-2(1H)-one]
[1]; [9]
  Inhibition vs Placebo: 1.2%
  % of melanin: 61.33 ± 2.2%
[1]; [10]
  Inhibition vs Placebo: 32.4%
  % of melanin: 52.46 ± 2.9%
[2]
  RQ CXCL1: 2.8
[3]
  RQ EDN1: 11.9
[4]
  RQ IL6: 5.7
[5]; 3.16 μM sclareolide
  Inhibition vs visible light induced: 18%
  melanin: 0.8784 ± 0.0293 µg
[5]; 10 μM sclareolide
  Inhibition vs visible light induced: 67%
  melanin: 0.6306 ± 0.0675 µg
[5]; 31.6 μM sclareolide
  Inhibition vs visible light induced: 70%
  melanin: 0.6106 ± 0.0658 µg
[5]; summary in words
  inhibition of visible light induced hyperpigmentation: significantly inhibits
[6]
  inhibition of UVB induced upregulation of genes: inhibits
[7]
  RQ IL8: 10.3
[8]; 3.16 μM sclareolide
  melanin: 0.7775 ± 0.0412 µg
[8]; 10 μM sclareolide
  melanin: 0.6554 ± 0.0408 µg
[8]; 31.6 μM sclareolide
  melanin: 0.8851 ± 0.0579 µg
[8]; summary in words
  effect on basal melanin formation: no effect
